Test results reported in patent US12427210B2, “Compounds comprising a fibroblast activation protein ligand and use thereof” (priority 2019, dated 2025).
Like-named read-outs stand apart in the source and are kept apart here. Numbered stars: 1 amine (or outer) side, 2 acyl side, 3 side chain; on linkers, the order of the positions; unused ones are H or OH. Bridge positions count the residues as written; N and C are the ends. Peptide text beside a SMILES is read from it. * marks the point of attachment. X1 = O=C(O)CN1CCN(CC(=O)O)CCN(CC(=O)N2CCN(Cc3cc(C[*:1])cc(C[*:2])c3)CC2)CCN(CC(=O)O)CC1; Hexanoyl = CCCCCC(=O)*

Key:
Na+ channel (site 2) = assay: SafetyScreen44 Na+ channel (site 2) (antagonist radioligand); type: binding; settings: 10 μM
BZD (central) = settings: 10 μM
NMDA = settings: 10 μM
KV channel = settings: 10 μM
[1] = test system: serine protease NS3 (a.a. 3-181) from Hepatitis C virus genotype 1a (mutant D168V)
beta 1 (h) = beta 1 (h) (Homo sapiens, UniProt P08588); assay: biochemical; settings: read-out: % Inhibition of Specific Binding
Chain of beta 1 (h) (P08588 whole entry): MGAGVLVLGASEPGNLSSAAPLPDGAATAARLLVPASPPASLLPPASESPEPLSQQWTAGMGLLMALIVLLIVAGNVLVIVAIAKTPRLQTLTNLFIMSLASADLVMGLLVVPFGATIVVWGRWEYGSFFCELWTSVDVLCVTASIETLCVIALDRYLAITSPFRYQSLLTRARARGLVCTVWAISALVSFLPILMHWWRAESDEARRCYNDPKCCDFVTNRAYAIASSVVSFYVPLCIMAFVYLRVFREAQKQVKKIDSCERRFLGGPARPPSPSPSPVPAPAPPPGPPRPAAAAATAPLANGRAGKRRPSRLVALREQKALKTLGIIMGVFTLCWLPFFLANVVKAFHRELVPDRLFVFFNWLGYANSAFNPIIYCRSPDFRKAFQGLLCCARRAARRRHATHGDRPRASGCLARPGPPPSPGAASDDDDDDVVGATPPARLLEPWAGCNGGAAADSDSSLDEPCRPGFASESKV

CCK1 (CCKA) (h) = CCK1 (CCKA) (h) (Homo sapiens, UniProt P32238); assay: biochemical; settings: read-out: % Inhibition of Specific Binding
Chain of CCK1 (CCKA) (h) (P32238 whole entry): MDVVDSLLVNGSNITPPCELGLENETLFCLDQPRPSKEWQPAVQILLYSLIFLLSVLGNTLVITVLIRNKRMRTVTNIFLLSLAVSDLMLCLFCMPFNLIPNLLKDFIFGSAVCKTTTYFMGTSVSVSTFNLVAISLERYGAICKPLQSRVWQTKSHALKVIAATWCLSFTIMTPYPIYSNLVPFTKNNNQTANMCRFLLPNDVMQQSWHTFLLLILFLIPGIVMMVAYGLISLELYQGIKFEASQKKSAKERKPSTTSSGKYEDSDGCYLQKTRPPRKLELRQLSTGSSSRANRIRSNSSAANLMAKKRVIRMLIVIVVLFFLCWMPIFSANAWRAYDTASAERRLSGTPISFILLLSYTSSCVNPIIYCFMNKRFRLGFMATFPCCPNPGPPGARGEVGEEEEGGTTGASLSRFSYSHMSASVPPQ

D2S (h) = D2S (h) (Homo sapiens, UniProt P14416); assay: biochemical; settings: read-out: % Inhibition of Specific Binding
Chain of D2S (h) (P14416 1-414 isoform P14416-2): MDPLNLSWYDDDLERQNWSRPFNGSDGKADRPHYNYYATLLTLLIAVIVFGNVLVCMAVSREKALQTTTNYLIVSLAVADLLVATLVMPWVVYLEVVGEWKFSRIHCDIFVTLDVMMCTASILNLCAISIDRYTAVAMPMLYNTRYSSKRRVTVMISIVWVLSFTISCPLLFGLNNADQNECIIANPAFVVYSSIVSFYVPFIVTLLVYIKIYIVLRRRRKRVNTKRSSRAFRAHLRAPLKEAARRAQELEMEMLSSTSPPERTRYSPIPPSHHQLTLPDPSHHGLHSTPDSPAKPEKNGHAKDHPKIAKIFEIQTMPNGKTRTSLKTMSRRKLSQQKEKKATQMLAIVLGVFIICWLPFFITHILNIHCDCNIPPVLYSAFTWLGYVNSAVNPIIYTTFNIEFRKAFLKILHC

M3 (h) = M3 (h) (Homo sapiens, UniProt P20309); assay: biochemical; settings: read-out: % Inhibition of Specific Binding
Chain of M3 (h) (P20309 whole entry): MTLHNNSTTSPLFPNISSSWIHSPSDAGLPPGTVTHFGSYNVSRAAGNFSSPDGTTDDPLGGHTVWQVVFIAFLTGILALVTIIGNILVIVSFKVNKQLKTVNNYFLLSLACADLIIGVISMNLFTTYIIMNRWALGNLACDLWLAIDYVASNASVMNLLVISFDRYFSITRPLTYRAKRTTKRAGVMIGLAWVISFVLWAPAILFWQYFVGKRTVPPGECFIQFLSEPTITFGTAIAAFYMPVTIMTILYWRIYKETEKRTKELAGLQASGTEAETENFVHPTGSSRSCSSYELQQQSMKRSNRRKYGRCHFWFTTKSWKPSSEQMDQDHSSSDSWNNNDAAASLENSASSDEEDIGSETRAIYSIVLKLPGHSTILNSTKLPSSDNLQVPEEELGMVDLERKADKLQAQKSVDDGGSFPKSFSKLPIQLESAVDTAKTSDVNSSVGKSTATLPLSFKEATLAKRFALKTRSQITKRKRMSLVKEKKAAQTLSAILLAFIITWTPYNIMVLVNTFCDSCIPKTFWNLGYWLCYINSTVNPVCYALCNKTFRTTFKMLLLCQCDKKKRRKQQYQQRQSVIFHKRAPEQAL

Acetylcholinesterase (h) = Acetylcholinesterase (h) (Homo sapiens, UniProt P22303); assay: biochemical; settings: read-out: % Inhibition of Specific Binding
Chain of Acetylcholinesterase (h) (P22303 32-614): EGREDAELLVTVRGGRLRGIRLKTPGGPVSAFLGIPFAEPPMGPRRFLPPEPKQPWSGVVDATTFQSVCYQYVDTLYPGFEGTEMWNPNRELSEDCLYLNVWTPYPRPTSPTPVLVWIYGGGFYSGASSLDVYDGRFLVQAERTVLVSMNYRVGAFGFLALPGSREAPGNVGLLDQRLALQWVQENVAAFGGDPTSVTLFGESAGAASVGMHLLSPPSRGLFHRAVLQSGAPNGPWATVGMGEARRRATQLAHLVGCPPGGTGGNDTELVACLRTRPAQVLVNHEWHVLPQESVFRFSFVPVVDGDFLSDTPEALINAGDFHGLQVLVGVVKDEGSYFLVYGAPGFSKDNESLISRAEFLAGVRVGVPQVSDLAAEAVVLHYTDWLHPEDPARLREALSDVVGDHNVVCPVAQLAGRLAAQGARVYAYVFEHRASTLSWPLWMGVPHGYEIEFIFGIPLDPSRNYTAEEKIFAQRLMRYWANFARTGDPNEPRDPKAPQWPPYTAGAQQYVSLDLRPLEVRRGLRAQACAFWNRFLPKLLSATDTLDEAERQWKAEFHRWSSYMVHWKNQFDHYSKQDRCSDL

Activated Protein C = Activated Protein C (Homo sapiens, UniProt P04070); assay: biochemical; settings: read-out: Percentage inhibition (%)
Chain of Activated Protein C (P04070 212-461 limits assumed): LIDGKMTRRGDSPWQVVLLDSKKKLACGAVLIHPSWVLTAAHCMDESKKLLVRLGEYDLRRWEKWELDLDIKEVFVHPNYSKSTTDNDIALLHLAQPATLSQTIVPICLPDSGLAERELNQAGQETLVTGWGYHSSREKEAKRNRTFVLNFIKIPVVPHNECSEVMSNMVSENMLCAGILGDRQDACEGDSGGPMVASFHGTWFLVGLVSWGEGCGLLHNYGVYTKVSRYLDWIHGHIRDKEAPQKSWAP
Chain of Activated Protein C (P04070 43-197 partner limits assumed): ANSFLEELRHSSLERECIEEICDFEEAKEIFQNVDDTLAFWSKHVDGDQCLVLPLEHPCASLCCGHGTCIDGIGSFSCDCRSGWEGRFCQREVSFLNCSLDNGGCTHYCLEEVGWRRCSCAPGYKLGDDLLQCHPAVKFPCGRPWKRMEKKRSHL

Caspase-7 = molecular target: T1, Caspase-7 (Homo sapiens, UniProt P55210); assay: biochemical; settings: read-out: Percentage inhibition (%)
T1 sequence (P55210 24-198 limits assumed): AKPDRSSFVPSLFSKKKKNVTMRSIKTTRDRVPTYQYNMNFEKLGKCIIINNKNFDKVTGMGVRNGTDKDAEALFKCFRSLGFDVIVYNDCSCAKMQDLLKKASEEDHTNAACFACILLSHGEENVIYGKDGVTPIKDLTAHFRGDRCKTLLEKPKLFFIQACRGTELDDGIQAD
T1 sequence (P55210 207-303 limits assumed): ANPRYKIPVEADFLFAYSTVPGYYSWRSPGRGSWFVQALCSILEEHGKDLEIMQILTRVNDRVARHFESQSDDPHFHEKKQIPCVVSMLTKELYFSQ

Cathepsin B = Cathepsin B (Homo sapiens, UniProt P07858); assay: biochemical; settings: read-out: Percentage inhibition (%)
[2] = molecular target: T2, Ubiquitin carboxy-terminal hydrolase L3 (Homo sapiens, UniProt P15374); assay: biochemical; settings: read-out: Percentage inhibition (%)
T2 sequence (P15374 1-230): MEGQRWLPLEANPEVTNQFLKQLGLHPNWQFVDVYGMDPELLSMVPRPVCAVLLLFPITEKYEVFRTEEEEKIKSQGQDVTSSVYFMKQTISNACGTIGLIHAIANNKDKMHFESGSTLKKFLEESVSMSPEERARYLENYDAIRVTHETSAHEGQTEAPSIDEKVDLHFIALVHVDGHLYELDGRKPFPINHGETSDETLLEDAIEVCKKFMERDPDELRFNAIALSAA

[3] = molecular target: T3, Ubiquitin carboxyl-terminal hydrolase 8 (Homo sapiens, UniProt P40818); assay: biochemical; settings: read-out: Percentage inhibition (%)
T3 sequence (P40818 1-1118): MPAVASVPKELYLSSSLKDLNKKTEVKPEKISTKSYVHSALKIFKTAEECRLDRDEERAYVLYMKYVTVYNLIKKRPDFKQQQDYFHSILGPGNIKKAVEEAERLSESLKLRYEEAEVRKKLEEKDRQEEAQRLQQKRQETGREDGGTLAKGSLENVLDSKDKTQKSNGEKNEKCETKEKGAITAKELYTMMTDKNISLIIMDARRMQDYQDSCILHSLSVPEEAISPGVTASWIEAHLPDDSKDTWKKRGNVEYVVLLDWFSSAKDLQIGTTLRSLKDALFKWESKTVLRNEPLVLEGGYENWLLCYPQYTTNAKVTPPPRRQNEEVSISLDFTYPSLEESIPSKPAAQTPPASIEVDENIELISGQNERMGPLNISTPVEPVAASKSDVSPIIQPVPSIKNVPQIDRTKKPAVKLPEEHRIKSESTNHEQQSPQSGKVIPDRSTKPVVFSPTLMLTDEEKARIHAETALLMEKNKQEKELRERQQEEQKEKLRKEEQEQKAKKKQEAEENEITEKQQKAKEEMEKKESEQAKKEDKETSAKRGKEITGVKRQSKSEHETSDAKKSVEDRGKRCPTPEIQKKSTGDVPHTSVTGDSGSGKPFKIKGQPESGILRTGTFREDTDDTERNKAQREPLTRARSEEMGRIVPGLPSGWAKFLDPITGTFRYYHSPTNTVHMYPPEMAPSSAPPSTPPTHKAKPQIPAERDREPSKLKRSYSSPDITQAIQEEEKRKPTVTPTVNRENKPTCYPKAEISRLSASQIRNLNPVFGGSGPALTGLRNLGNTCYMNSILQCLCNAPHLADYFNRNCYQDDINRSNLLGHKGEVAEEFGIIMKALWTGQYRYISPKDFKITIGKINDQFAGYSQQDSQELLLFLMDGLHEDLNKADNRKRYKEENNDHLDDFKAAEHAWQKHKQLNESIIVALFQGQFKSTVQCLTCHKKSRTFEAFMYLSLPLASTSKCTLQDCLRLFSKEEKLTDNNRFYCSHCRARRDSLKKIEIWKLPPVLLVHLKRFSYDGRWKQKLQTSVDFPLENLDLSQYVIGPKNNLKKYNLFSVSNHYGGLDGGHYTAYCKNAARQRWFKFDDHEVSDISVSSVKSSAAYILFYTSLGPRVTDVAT

[4] = molecular target: Ubiquitin carboxyl-terminal hydrolase 14 (Homo sapiens, UniProt P54578); assay: biochemical; settings: read-out: Percentage inhibition (%)
Chain of Ubiquitin carboxyl-terminal hydrolase 14 (P54578 whole entry): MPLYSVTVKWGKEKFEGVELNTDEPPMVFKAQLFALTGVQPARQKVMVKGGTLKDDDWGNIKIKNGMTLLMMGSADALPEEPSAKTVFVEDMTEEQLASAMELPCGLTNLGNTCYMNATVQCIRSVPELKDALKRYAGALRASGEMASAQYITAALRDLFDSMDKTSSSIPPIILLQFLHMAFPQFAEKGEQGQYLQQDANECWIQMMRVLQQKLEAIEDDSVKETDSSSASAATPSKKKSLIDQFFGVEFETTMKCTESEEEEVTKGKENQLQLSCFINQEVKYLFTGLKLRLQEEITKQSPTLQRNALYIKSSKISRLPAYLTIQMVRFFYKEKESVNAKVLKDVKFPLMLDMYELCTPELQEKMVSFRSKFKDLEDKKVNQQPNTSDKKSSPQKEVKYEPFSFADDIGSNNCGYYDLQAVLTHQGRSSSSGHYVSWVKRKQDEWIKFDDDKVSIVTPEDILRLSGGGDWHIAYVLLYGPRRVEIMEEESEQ

FAP = FAP (Homo sapiens, UniProt Q12884); assay: biochemical; settings: read-out: Percentage inhibition (%)
Chain of FAP (Q12884 whole entry): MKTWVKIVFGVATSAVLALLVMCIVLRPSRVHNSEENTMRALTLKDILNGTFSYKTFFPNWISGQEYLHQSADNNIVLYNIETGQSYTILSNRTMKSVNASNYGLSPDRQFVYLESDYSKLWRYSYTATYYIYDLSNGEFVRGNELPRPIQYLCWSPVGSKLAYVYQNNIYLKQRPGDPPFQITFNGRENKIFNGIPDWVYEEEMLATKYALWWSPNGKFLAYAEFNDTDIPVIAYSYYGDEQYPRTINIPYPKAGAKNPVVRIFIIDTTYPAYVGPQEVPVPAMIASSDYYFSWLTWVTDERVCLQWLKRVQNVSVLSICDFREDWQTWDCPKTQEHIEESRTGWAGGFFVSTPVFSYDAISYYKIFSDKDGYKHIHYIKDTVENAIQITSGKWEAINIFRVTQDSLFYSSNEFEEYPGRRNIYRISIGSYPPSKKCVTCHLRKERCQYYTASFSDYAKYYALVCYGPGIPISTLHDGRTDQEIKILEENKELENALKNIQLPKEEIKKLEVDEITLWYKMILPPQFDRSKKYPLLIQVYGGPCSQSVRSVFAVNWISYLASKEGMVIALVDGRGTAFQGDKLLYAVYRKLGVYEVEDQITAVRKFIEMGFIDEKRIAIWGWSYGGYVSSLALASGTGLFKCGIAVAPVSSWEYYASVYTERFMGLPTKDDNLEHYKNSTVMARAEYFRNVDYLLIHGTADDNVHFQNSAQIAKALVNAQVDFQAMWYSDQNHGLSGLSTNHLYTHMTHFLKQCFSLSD

CCCCCC(=O)N[C@H]1CSCc2cc(cc(CN3CCN(C(=O)CN4CCN(CC(=O)O)CCN(CC(=O)O)CCN(CC(=O)O)CC4)CC3)c2)CSC[C@@H](C(=O)N[C@@H](CC(=O)O)C(N)=O)NC(=O)[C@H](Cc2ccccc2)NC(=O)[C@H](CCC(N)=O)NC(=O)[C@H]([C@@H](C)O)NC(=O)[C@@H]2CCCN2C(=O)[C@@H]2CCCN2C1=O [Compound 3BP-3407, Hex-[Cys(tMeBn(DOTA-PP))-Pro-Pro-Thr-Gln-Phe-Cys]-Asp-NH2] (Hexanoyl-CPPTQFCD-NH2; linker 1-7 via X1)
% Inhibition of Specific Binding (Na+ channel (site 2)): −7%
% Inhibition of Specific Binding (BZD (central)): −9%
% Inhibition of Specific Binding (NMDA): 9%
% Inhibition of Specific Binding (KV channel): −5%
Percentage inhibition (%) ([1]; 1 μM): 1%
Percentage inhibition (%) ([1]; 10 μM): −68%
inhibition at 10 µM (beta 1 (h)): 4%
inhibition at 10 µM (CCK1 (CCKA) (h)): 24%
inhibition at 10 µM (D2S (h)): 15%
inhibition at 10 µM (M3 (h)): 10%
inhibition at 10 µM (Acetylcholinesterase (h)): -6%
inhibition at 1 µM (Activated Protein C): 5%
inhibition at 10 µM (Activated Protein C): 8%
inhibition at 1 µM (Caspase-7): -3%
inhibition at 10 µM (Caspase-7): -3%
inhibition at 1 µM (Cathepsin B): 26%
inhibition at 10 µM (Cathepsin B): 36%
inhibition at 1 µM [2]: -1%
inhibition at 10 µM [2]: 14%
inhibition at 1 µM [3]: -3%
inhibition at 10 µM [3]: 6%
inhibition at 1 µM [4]: -1%
inhibition at 10 µM [4]: 5%
inhibition at 1 µM (FAP): 98%
inhibition at 10 µM (FAP): 99%

CCCCCC(=O)N[C@H]1CSCc2cc(CSCCNC(=O)CN3CCN(CC(=O)O)CCN(CC(=O)O)CCN(CC(=O)O)CC3)cc(c2)CSC[C@@H](C(=O)O)NC(=O)[C@H](Cc2ccccc2)NC(=O)[C@H](CCC(N)=O)NC(=O)[C@H]([C@@H](C)O)NC(=O)[C@@H]2CCCN2C(=O)[C@@H]2CCCN2C1=O [Compound 3BP-3554, Hex-[Cys(tMeBn(DOTA-AET))-Pro-Pro-Thr-Gln-Phe-Cys]-OH]
% Inhibition of Specific Binding (Na+ channel (site 2)): 14%
% Inhibition of Specific Binding (BZD (central)): 5%
% Inhibition of Specific Binding (NMDA): 1%
% Inhibition of Specific Binding (KV channel): 4%
Percentage inhibition (%) ([1]; 1 μM): −39%
Percentage inhibition (%) ([1]; 10 μM): −372%
inhibition at 10 µM (beta 1 (h)): -13%
inhibition at 10 µM (CCK1 (CCKA) (h)): 16%
inhibition at 10 µM (D2S (h)): -7%
inhibition at 10 µM (M3 (h)): 1%
inhibition at 10 µM (Acetylcholinesterase (h)): 1%
inhibition at 1 µM (Activated Protein C): -11%
inhibition at 10 µM (Activated Protein C): 1%
inhibition at 1 µM (Caspase-7): -1%
inhibition at 10 µM (Caspase-7): -7%
inhibition at 1 µM (Cathepsin B): 1%
inhibition at 10 µM (Cathepsin B): 2%
inhibition at 1 µM [2]: 0%
inhibition at 10 µM [2]: 0%
inhibition at 1 µM [3]: 2%
inhibition at 10 µM [3]: 1%
inhibition at 1 µM [4]: 1%
inhibition at 10 µM [4]: 2%
inhibition at 1 µM (FAP): 97%
inhibition at 10 µM (FAP): 99%
